The subject of series [1] is SUDHL10. Briefly: Induction of cytotoxicity (CellTiter-Glo, 5 h), SUDHL10. A general note: ATP-based viability assays read luminescence as a measure of living cells.
Series [2] addresses MCL-1 (Homo sapiens, UniProt Q07820). Briefly: Protein-protein interaction assay MCL-1/Noxa BH3 peptide (MCL-1 assay), TR-FRET. The series is classed as binding. Conditions: MBP-MCL-1 / Noxa BH3-derived peptide, median. Put shortly: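 Inhibition values were normalized between DMSO controls with all reagents and controls lacking MCL-1. The binding competition used 1 nM MBP-MCL-1 in pH 7 Tris buffer containing 50 mM KF and 100 mM NaCl, with a 10 min compound preincubation at 22 °C.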
(In general: Time-resolved FRET reads energy transfer from a long-lived donor to a nearby acceptor.)

Series [3] deals with A2780. Briefly: Anti-proliferative effect (CellTiter-Glo, 72 h), A2780. The series is classed as cell-based. Conditions: A2780 cells, median, read-out: IC50 antiproliferation assay A2780 [M] (median). Put shortly: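 Luminescence from CellTiter-Glo, read 10 min after reagent addition, reports viable cell content after 72 h of compound treatment at 37 °C. A reference plate read at day 0 gives the starting baseline.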

In series [4] the test system is SUDHL5. Briefly: Anti-proliferative effect (CellTiter-Glo, 72 h), SUDHL5. The series is classed as cell-based. Conditions: SUDHL5 cells, antiproliferation, median, read-out: Antiproli SUDHL5 [M] (median). The procedure: Assessment of the Anti-Proliferative Effect of Compounds in Different Cell Lines
The impact of compounds on the proliferation of different cell lines was assessed using the CellTiter-Glo® Luminescent Cell Viability reagent from Promega (G7573). Of note, SUDHL10 and SUDHL5 (DLBCL), NCI-H929 (Multiple Myeloma), A2780 (ovarian carcinoma) as well as MV-4-11(AML) cells are sensitive to MCL-1 inhibition.
In parallel, cells were plated in a reference (day 0) plate for time zero determination.
Rim wells were excluded. The cells were incubated for 72 h hours in a humidified incubator at 37° C. The day 0 plate was measured by adding 30 μl/well of CTG solution (CellTiter-Glo® Luminescent Cell Viability reagent, Promega G7573) to time zero wells in the reference plate followed by a 10 minutes incubation and luminescence reading at 0.1 ms, using the PHERAstar FS microplate reader (BMG Labtech).
After 72 h incubation, the treated plates were measured in the same way as the day 0 plate mentioned above.

Series [5] has as its system SUDHL5. Briefly: Induction of caspase-3/7 activity (Caspase-Glo 3/7), SUDHL5. The series is classed as cell-based. The settings on record: caspase-3/7 induction, SUDHL5 cells, 3 h treatment, median. Put shortly:
(§1)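 Apoptosis induction measured as caspase-3/7 activity (Caspase-Glo 3/7) in DLBCL lines after 3 h treatment at 37 °C; EC50 derived relative to the reference compound's maximal induction, with C0 fixed at 1.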

The test system of series [6] is SUDHL5. Briefly: Induction of cytotoxicity (CellTiter-Glo, 5 h), SUDHL5.
Series [7] relates to SUDHL10. Briefly: Induction of caspase-3/7 activity (Caspase-Glo 3/7), SUDHL10. The series is classed as cell-based. Conditions: caspase-3/7 induction, SUDHL10 cells, 3 h treatment, median. The gist of the method:
as §1

Setting [8] is: Homo sapiens, SU-DHL10, 5 h, read-out: Cytotox SUDHL10 [M] (median), SUDHL10 cells, cytotoxicity induction, CellTiter-Glo, 5 h, median.
The mark [9] stands for this setting: Homo sapiens, SU-DHL-5, 72 h, 72 h.
[10] abbreviates: Homo sapiens, SU-DHL-5, 5 h, read-out: Cytotox SUDHL5 [M] (median), SUDHL5 cells, cytotoxicity induction, CellTiter-Glo, 5 h, median.
Setting [11] is: read-out: Cytotox SUDHL10 [M] (median), SUDHL10 cells, cytotoxicity induction, CellTiter-Glo, 5 h incubation, median.
[12] abbreviates: read-out: Cytotox SUDHL5 [M] (median), SUDHL5 cells, cytotoxicity induction, CellTiter-Glo, 5 h incubation, median.
Where [13] appears, read: Homo sapiens, SU-DHL10, 5 h, read-out: Cytotox SUDHL10 [M] (median), SUDHL10 cells, cytotoxicity induction, CellTiter-Glo, 5 h incubation, median.
[14] abbreviates: Homo sapiens, SU-DHL-5, 72 h, 72 h incubation.

Each structure is given as a SMILES string. Structures can show the parent of a compound that is named as a salt. Where two headings read alike, the source gives them in different places.

Results on ten compounds are retold here after patent publication US10981932B2, “Macrocyclic indole derivatives” (Bayer Aktiengesellschaft, priority 2016, dated 2021).

Sequence of MCL-1 (Q07820 whole entry): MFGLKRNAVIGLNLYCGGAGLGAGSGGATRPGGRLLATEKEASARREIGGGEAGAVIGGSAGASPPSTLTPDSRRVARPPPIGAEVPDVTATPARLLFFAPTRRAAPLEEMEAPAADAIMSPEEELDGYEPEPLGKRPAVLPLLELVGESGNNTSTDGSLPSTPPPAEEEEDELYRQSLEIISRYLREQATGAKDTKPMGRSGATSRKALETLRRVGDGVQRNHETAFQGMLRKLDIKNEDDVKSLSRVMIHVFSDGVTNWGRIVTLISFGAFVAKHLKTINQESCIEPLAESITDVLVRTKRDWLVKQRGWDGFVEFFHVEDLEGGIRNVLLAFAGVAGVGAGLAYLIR

By EC50 is commonly meant the concentration needed to bring the measured effect to its halfway point. On to `CN1CCN(Cc2c3c(nn2C)COC/C=C\Cn2c(C(=O)O)c(CCCOc4cccc5ccccc45)c4cccc-3c42)CC1` (racemic) [Example 358, (rac)-(11 Z)-2-methyl-3-[(4-methylpiperazin-1-yl)methyl]-7-[3-(naphthalen-1-yloxy)propyl]-2,10,13,15-tetrahydropyrazolo[4′,3′:9,10][1,6]oxazacycloundecino[8,7,6-hi]indole-8-carboxylic Acid], for which the IC50 was above 3.3e-05 M in series [1] (setting [8]); 0.0173 µM in series [2]; 1.2e-05 M in series [3] (Homo sapiens, A2780, 72 h); 2.06e-05 M in series [4] (setting [9]); above 3.3e-05 M in series [6] (setting [10]). Further, the half-maximal effective concentration (EC50) in series [5] (Homo sapiens, SU-DHL-5, 3 h) was above 33 µM; in series [7] (Homo sapiens, SU-DHL10, 3 h) it was above 33 µM.

In the case of `Cc1ccc2c(C(C)CCOc3cccc4ccccc34)c(C(=O)O)n3c2c1-c1c(nn(C)c1C)COCCCC3` (racemic) [Example 362, 11,12,13-trimethyl-1-(4-(naphthalen-1-yloxy)butan-2-yl)-4,5,6,7,9,11-hexahydropyrazolo[4′,3′:9,10][1,6]oxaazacycloundecino[8,7,6-hi]indole-2-carboxylic Acid (Mixture of Stereoisomers)], the IC50 in series [1] (setting [8]) was above 3.3e-05 M; in series [2], 0.0187 µM; in series [3] (Homo sapiens, A2780, 72 h), 1.41e-05 M; in series [4] (setting [9]) it was 1.27e-05 M; in series [6] (setting [10]), 2.72e-05 M. Also, the EC50 was 26.2 µM in series [5] (Homo sapiens, SU-DHL-5, 3 h) and above 33 µM in series [7] (Homo sapiens, SU-DHL10, 3 h).

With `COc1c2c(nn1C)COCCCCn1c(C(=O)O)c(CCCOc3cccc4ccccc34)c3cccc-2c31` (single isomer, unassigned) [Example 209, 3-methoxy-2-methyl-7-[3-(naphthalen-1-yloxy)propyl]-2,10,11,12,13,15-hexahydropyrazolo[4′,3′:9,10][1,6]oxazacycloundecino[8,7,6-hi]indole-8-carboxylate], the IC50 is above 3.3e-05 M in series [1] (setting [11]); 0.025 µM in series [2]; 1.58e-05 M in series [3]; 1.58e-05 M in series [4] (72 h incubation); above 3.3e-05 M in series [6] (setting [12]). Also, the concentration for a half-maximal effect (EC50) in series [5] and in series [7] was above 33 µM each time.

In the case of `CCc1nn(C)c2c1-c1c(C)ccc3c(C(C)CCOc4cccc5cc(F)ccc45)c(C(=O)O)n(c13)CCCCOC2` (single isomer, unassigned) [Example 262, 3-ethyl-7-{4-[(6-fluoronaphthalen-1-yl)oxy]butan-2-yl}-1,4-dimethyl-1,10,11,12,13,15-hexahydropyrazolo[4′,3′:9,10][1,6]oxazacycloundecino[8,7,6-hi]indole-8-carboxylic Acid], the IC50 was determined as 2.15e-05 M in series [1] (setting [11]); 0.0388 µM in series [2]; 7.54e-06 M in series [3]; 4.2e-06 M in series [4] (72 h incubation); 1.67e-05 M in series [6] (setting [12]). For the same compound, the EC50 in series [5] is 22.6 µM; in series [7], above 33 µM.

For the compound `CCc1nn(C)c2c1-c1c(C)ccc3c(C(C)CCOc4cccc5cc(F)ccc45)c(C(=O)O)n(c13)CCCCOC2` (single isomer, unassigned) [Example 263, 3-ethyl-7-{4-[(6-fluoronaphthalen-1-yl)oxy]butan-2-yl}-1,4-dimethyl-1,10,11,12,13,15-hexahydropyrazolo[4′,3′:9,10][1,6]oxazacycloundecino[8,7,6-hi]indole-8-carboxylic Acid], the IC50 in series [1] (setting [11]) was 2.79e-05 M; in series [2], 0.926 µM; in series [3], 1.01e-05 M; in series [4] (72 h incubation), 4.61e-06 M; in series [6] (setting [12]) it was above 3.3e-05 M. Moreover, the EC50 in series [5] and in series [7] was above 33 µM in each case.

For `CCc1nn(C)c2c1-c1c(C)ccc3c(C(C)CCOc4cccc5cc(F)ccc45)c(C(=O)O)n(c13)CCCCOC2` (single isomer, unassigned) [Example 264, 3-ethyl-7-{4-[(6-fluoronaphthalen-1-yl)oxy]butan-2-yl}-1,4-dimethyl-1,10,11,12,13,15-hexahydropyrazolo[4′,3′:9,10][1,6]oxazacycloundecino[8,7,6-hi]indole-8-carboxylic Acid], the IC50 was above 3.3e-05 M in series [1] (setting [11]); 0.132 µM in series [2]; 1.92e-05 M in series [3]; 1.67e-05 M in series [4] (72 h incubation); above 3.3e-05 M in series [6] (setting [12]). In addition, the EC50 in series [5] and in series [7] was above 33 µM in each case.

On to `Cc1nn(C)c2c1-c1cccc3c(CCCOc4cccc5ccccc45)c(C(=O)O)n(c13)CCCN(c1ccc(N3CCN(S(=O)(=O)N(C)C)CC3)cc1)C2` (single isomer, unassigned; enantiomer 1) [Example 1-106, 7-{4-[4-(Dimethylsulfamoyl)piperazin-1-yl]phenyl}-9,11-dimethyl-1-[3-(1-naphthyloxy)propyf]-4,5,6,7,8,9-hexahydropyrazolo[3′,4′:7,8][1,5]diazecino[9,10,1-hi]indole-2-carboxylic Acid (Enantiomer 1)], for which the IC50 in series [1] (setting [13]) is 1.89e-05 M; in series [2], 0.0163 µM; in series [3] (Homo sapiens, A2780, 72 h) it was 8.83e-06 M; in series [4] (setting [14]), 4.15e-06 M; in series [6] (setting [12]), 1.49e-05 M. Besides, the figures for the EC50 in series [5] and in series [7] were 11.5 µM and 9.37 µM, respectively.

Turning to `Cc1c2c(nn1C)COCCCn1c(C(=O)O)c(CCCOc3cccc4ccccc34)c3cccc-2c31` (single isomer, unassigned; enantiomer 1) [Example 064, 10,11-dimethyl-1-[3-(naphthalen-1-yloxy)propyl]-5,6,8,10-tetrahydro-4H-pyrazolo[4′,3′:8,9][1,5]oxazecino[7,6,5-h]indole-2-carboxylic acid-N-ethylethanamine Salt (Enantiomer 1)], the IC50 in series [1] (setting [13]) was found to be 2.59e-05 M; in series [2] it was 0.0115 µM; in series [3] (Homo sapiens, A2780, 72 h), 3.14e-05 M; in series [4] (72 h incubation), 1.12e-05 M; in series [6] (setting [12]) it was 7.53e-06 M. Moreover, the half-maximal effective concentration (EC50) turned out to be 4.98 µM in series [5] and 17.5 µM in series [7] (Homo sapiens, SU-DHL10, 3 h).

`CCn1nc(C2CC2)c2c1COCCCCn1c(C(=O)O)c(CCCOc3cccc4ccccc34)c3cccc-2c31` (single isomer, unassigned; enantiomer 1) [Example 089, 3-cyclopropyl-1-ethyl-7-[3-(naphthalen-1-yloxy)propyl]-1,10,11,12,13,15-hexahydropyrazolo[4′,3′:9,10][1,6]oxazacycloundecino[8,7,6-hi]indole-8-carboxylic acid-N-ethylethanamine Salt (Enantiomer 1)]: the IC50 in series [1] (setting [13]) was 3e-05 M; in series [2] it was 0.00384 µM; in series [3] (Homo sapiens, A2780, 72 h) it was above 3.3e-05 M; in series [4] (setting [14]), 1.71e-05 M; in series [6] (setting [12]), 7e-06 M. Also, the EC50 in series [5] turned out to be 6.76 µM; in series [7] (Homo sapiens, SU-DHL10, 3 h), 24.1 µM.

On to `Cc1nn(CC(F)(F)F)c2c1-c1cccc3c(CCCOc4cccc5c4CCCC5)c(C(=O)O)n(c13)CCCCOC2` (single isomer, unassigned; enantiomer 1) [Example 162, 3-methyl-7-[3-(5,6,7,8-tetrahydronaphthalen-1-yloxy)propyl]-1-(2,2,2-trifluoroethyl)-1,10,11,12,13,15-hexahydropyrazolo[4′,3′:9,10][1,6]oxazacycloundecino[8,7,6-hi]indole-8-carboxylic acid-N-ethylethanamine Salt (Enantiomer 1)], for which the IC50 came to 2.3e-05 M in series [1] (setting [13]); 0.00761 µM in series [2]; 2.55e-05 M in series [3] (Homo sapiens, A2780, 72 h); 6.96e-08 M in series [4] (72 h incubation); 8.92e-06 M in series [6] (setting [12]). Also, the EC50 in series [5] was 5.35 µM; in series [7] (Homo sapiens, SU-DHL10, 3 h) it was 23.2 µM.
